Assay results from article PMC9632859, “Modulation of NMDA receptor activity by CR4056, an imidazoline-2 receptor ligand with analgesic properties” (Frontiers in Pain Research, 2022).
“And” between values parts separate entries of the source, which are not always exact repeats. Identical values can stand only once.

What was measured:
NMDA receptor [1] = assay: NMDA-evoked currents in primary culture of cortical neurons, whole-cell patch-clamp; type: cell-based, rat; details: for IC50: NMDA 100 µM + glycine 10 µM, read-out: IC50 of reduction of NMDA-evoked current; for maximal reduction of NMDA current (efficacy): from dose-response curve
Description: (§1) Primary cultures of cortical (CX) and cerebellar (CB) neurons were prepared from newborn (CX) or seven days old (CB) Sprague-Dawley rats Briefly, cells from cortex and cerebellum were dispersed with trypsin (0.24 mg/ml; Sigma Aldrich, Milan, Italy) and plated at a density of 0.8 × 10^6 cells/ml on 35 mm Falcon dishes coated with poly-L-lysine (10 µg/ml, Sigma Aldrich). Cells were plated in basal Eagle's Medium (BME; Celbio, Milan, Italy), supplemented with 10% fetal bovine serum (Celbio), 2 mM glutamine, 25 mM KCl and 100 µg/ml gentamycin (Sigma Aldrich) and maintained at 37°C in 5% CO2. After 24 h in vitro, the medium was replaced with 1:1 mixture of BME and Neurobasal medium (Celbio, Milan) containing 2% B27 supplement, 1% antibiotic, and 0.25% glutamine (Invitrogen). At […] in vitro (DIV5), cytosine arabinofuranoside (Ara-C) was added at final concentration of 1 µM. Thereafter, half of the medium was replaced twice a week with Neurobasal medium containing 2% B27 supplement, 1% antibiotic, and 0.25% glutamine.
(§2) Recordings were performed in cortical and cerebellar neurons after 7–9 days in culture or in spinal cord slices from postnatal rats. All recordings were performed at room temperature, under voltage-clamp in the whole-cell configuration of the patch-clamp technique ([19]). […] Currents were amplified with an Axopatch 1D amplifier (Axon Instruments, Foster City. CA), filtered at 5 kHz, digitized at 10 kHz.
(§3) The chamber used for recording from cultured neurons was continuously perfused at 2 ml/min with an extracellular medium composed of (mM): 145 NaCl, 5 KCl, 1 CaCl2, 5 Hepes, 5 Glucose, and 20 Sucrose, pH 7.4 with NaOH. Intracellular solution contains (mM): 140 KCl, 3 MgCl2, 5 EGTA, 5 Hepes, and 2 ATP-Na, pH 7.3 with KOH.
(§4) All drugs were applied directly by gravity through a Y-tube perfusion system ([21]) in the experiments performed in culture while in slice experiments CR4056 and the receptor antagonists were bath perfused.
When CR4056 (10 µM) was delivered inside the cell through the patch pipette the response to NMDA application was recorded at time 0 (just after breaking inside the cell) and after 1.5, 3, 4.5, 6 min. The NMDA-evoked current was recorded at these time intervals and the amplitude of the current was measured.
The effect of CR 4056 in primary neuronal cultures was calculated as % variation of the NMDA-evoked current after application of the drug. A negative variation means a reduction of the control current. Off-line data analysis, curve fitting, and figure preparation were performed with Clampfit 9 or 10 (Molecular Devices, Sunnyvale, CA, United States), Origin 4.1 (Microcal, Northampton, MA, United States), and Microsoft Office (Microsoft). SigmaPlot 11 (SYSTAT, Palo Alto, CA, United States) and GraphPad Prism 9.3 (GraphPad Software, San Diego, CA, United States) were used for statistical analysis.
NMDA-evoked currents were recorded in primary culture of cortical neurons using the patch-clamp technique in the whole cell configuration. Fast application of NMDA (100 µM) and Glycine (10 µM) elicited an inward current that was decreased by CR4056 (Figure 1A); the effect was reversible and dose-dependent (Figure 1B). […] (Figure 1B).

[2] = target: GluN1-GluN2A containing receptors (Homo sapiens, UniProt Q05586+Q12879); assay: NMDA-evoked currents in JM4C fibroblasts expressing GluN1-GluN2A; type: cell-based; details: for IC50: 0.1–100 µM, read-out: IC50 of reduction of NMDA-evoked current, GluN1-GluN2A; for Emax: read-out: efficacy (Eff, maximal effect) on NMDA-evoked current, GluN1-GluN2A
GluN1-GluN2A containing receptors, sequence (Q12879 23-1464, other chains not shown): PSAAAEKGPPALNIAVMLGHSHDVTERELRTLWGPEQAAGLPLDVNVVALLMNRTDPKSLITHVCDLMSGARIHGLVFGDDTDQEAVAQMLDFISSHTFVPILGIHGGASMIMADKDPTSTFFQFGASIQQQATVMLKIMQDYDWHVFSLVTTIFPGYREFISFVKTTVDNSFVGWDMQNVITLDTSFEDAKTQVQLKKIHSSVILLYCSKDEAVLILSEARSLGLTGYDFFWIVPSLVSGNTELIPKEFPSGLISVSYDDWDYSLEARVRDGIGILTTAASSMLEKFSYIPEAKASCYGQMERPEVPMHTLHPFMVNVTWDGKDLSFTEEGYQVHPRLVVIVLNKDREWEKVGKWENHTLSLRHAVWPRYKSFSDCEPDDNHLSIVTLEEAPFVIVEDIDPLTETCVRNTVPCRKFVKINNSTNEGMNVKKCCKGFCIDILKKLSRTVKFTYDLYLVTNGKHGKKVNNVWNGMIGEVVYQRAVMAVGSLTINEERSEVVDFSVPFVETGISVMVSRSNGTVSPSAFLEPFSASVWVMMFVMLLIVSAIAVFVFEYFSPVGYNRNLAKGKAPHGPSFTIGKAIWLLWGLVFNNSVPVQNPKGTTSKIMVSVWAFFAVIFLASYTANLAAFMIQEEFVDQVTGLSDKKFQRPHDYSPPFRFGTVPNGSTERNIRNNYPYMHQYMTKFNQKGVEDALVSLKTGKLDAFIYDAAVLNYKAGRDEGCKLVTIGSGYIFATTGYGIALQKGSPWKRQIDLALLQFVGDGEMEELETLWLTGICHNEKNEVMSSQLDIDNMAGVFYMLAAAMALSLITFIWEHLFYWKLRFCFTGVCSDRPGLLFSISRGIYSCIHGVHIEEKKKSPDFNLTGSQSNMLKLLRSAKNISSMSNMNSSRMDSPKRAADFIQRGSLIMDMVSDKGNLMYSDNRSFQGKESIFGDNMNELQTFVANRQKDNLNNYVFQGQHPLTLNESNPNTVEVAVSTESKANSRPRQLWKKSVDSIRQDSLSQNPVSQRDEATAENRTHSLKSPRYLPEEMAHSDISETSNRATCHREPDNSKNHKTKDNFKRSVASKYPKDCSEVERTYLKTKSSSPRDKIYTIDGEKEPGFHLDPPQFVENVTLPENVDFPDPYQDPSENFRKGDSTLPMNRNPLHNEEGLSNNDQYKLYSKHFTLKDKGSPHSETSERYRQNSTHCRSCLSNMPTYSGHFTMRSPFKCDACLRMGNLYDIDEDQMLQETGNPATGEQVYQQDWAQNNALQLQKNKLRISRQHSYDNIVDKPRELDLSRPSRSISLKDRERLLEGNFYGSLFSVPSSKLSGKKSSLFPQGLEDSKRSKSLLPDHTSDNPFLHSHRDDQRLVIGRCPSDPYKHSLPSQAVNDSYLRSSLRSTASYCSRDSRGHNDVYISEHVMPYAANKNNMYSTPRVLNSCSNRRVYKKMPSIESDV
Description: (§5) Mouse connective tissue fibroblasts JM4C cells stably transfected with NR1A/NR2A or NR1A/NR2B human NMDA inducible receptors were kindly donated by Dr. Paul Whiting, Merk Sharp / Dohme (UK). They were grown in Dulbecco's Modified Basal Eagle's medium (DMEM) with Na+ pyruvate, 4,500 mg glucose and glutamine. For growing, DMEM was added with geneticin 1 mg/ml (Sigma) and foetal bovine serum 10% (Celbio). One day before experiment, fibroblasts confluent dishes were split with trypsin-EDTA 0.05% (Euroclone) and plated at the density of 0.5 × 10^6 cells/ml in 2 ml dishes containing an inducing DMEM with ketamine (final concentration 0.015%, Gellini International, Italy) and 25 nM dexamethasone (Sigma Aldrich) to induce NMDA receptors expression.
as §2, §3, §4
(§6) Increasing concentrations of CR4056 (0.1–100 µM) were applied to NMDA-evoked currents in fibroblasts expressing GluN1- GluN2A or GluN1- GluN2B subunits (Figure 3A).

GluN1-GluN2B receptors = GluN1-GluN2B receptors (Homo sapiens, UniProt Q05586+Q13224); assay: NMDA-evoked currents in JM4C fibroblasts expressing GluN1-GluN2B; type: cell-based; details: for IC50: 0.1–100 µM, read-out: IC50 of reduction of NMDA-evoked current, GluN1-GluN2B; for Emax: read-out: efficacy (Eff, maximal effect) on NMDA-evoked current, GluN1-GluN2B
GluN1-GluN2B receptors, sequence (Q13224 27-1484, other chains not shown): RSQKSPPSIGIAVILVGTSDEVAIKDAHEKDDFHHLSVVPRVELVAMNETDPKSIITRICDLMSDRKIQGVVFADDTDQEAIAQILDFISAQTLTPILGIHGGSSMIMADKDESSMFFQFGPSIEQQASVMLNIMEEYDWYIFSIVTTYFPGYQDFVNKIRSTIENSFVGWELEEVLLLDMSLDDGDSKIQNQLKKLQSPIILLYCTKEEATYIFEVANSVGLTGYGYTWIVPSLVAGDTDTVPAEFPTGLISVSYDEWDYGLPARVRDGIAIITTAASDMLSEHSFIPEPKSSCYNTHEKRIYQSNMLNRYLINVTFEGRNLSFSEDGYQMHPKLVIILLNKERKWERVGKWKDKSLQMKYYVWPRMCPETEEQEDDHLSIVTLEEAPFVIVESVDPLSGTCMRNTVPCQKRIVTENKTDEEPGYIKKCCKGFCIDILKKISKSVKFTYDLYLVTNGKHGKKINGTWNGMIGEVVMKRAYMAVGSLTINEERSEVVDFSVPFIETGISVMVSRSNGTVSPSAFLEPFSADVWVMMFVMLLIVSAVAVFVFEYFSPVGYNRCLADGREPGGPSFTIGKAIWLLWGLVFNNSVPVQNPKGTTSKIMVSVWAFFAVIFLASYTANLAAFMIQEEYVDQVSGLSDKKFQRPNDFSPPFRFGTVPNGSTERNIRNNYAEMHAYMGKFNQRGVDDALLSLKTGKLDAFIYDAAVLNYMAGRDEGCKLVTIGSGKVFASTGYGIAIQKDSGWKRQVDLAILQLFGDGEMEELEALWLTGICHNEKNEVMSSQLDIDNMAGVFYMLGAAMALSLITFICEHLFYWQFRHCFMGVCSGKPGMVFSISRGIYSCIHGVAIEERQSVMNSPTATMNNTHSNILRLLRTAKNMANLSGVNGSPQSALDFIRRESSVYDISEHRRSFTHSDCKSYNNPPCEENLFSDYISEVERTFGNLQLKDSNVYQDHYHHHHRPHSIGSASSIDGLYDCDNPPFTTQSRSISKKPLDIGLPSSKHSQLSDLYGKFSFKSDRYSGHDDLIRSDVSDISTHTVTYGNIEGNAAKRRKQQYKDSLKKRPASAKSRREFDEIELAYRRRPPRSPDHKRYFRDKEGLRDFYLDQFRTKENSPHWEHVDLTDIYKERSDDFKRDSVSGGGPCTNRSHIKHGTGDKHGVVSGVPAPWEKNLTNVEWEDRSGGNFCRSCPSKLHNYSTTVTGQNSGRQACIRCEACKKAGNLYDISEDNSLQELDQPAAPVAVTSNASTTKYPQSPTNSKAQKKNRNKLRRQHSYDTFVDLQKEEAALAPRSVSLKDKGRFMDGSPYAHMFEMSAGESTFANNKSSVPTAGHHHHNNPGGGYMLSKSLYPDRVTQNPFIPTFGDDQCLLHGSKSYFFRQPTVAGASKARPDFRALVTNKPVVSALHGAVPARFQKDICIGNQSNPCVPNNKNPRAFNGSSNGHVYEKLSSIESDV
Description: as §5, §2, §3, §4, §6

PKCε translocation = tested on: PKCε translocation; set-up: method as in PMID 31454418; details: activated sensory neurons, cultured DRG; cited from earlier work
NMDA receptor [3] = assay: NMDA-evoked currents in primary culture of cerebellar neurons, whole-cell patch-clamp; type: cell-based, rat; details: CR4056 10 µM, glycine 1-500 µM, one-way ANOVA
Description: as §1, with “Thereafter, half of the medium was replaced twice a week with Neurobasal medium containing 2% B27 supplement, 1% antibiotic, and 0.25% glutamine.” left out
The effect of CR 4056 in primary neuronal cultures was calculated as % variation of the NMDA-evoked current after application of the drug. […]
Glycine is an important co-agonist of the NMDA receptor. To test the dependence of CR4056 modulation on glycine concentration we measured the reduction of NMDA current by CR4056 (10 µM) in the presence of 1, 5, 10, 50, 100, and 500 µM glycine.

[4] = tested on: NMDA-mediated postsynaptic excitatory currents (EPSCs); assay: NMDA EPSCs evoked by dorsal root stimulation in lamina II neurons of spinal cord slices; type: cell-based, rat
Source text: (§7) Sprague–Dawley rats (male and female at postnatal days P15-P23) were anaesthetized with isoflurane and decapitated. The spinal cord and vertebrae were rapidly removed and placed in ice-cold dissecting Krebs' solution (composition in mM: 90 NaCl, 50 sucrose, 2.5 KCl, 25 NaHCO3, 1 NaH2PO4·H2O, 25 glucose, 6 MgCl2, 1.5 CaCl2, 1 kynurenic acid), bubbled with carboxygen (95% O2, 5% CO2). The lumbar part of the spinal cord was isolated, embedded in low melting point agarose (3% w/v, Thermo Fisher Scientific, Waltham, United States), and transverse slices (500 µm thick) were obtained using a vibrating microtome (WPI, Sarasota, United States). Slices were incubated in oxygenated incubation Krebs' solution (composition in mM: 125 NaCl, 2.5 KCl, 25 NaHCO3, 1 NaH2PO4·H2O, 25 glucose, 6 MgCl2, 1.5 CaCl2) at 32°C for 30 min and then used for recording.
Neurons in spinal cord slices were visualized using an Axioskop microscope (Zeiss, Oberkochen, Germany), fitted with Nomarski optics and connected to a CCD camera (Dage-MTI, Michigan City, United States). Patch-clamp recordings were performed by using thick-walled borosilicate pipettes (3–5 MOhm resistance). Data were recorded and acquired using a MultiClamp 700A amplifier and the pClamp 10 software (Molecular Devices, Sunnyvale, United States). Sampling rate was 10 kHz, and data were filtered at 2–5 kHz. The dorsal root attached to each slice was stimulated using a suction electrode. Stimulus duration was 0.1 ms, stimulus intensity was 500 µA, able to activate both A and C primary afferent fibers ([20]). Extracellular field potentials were recorded by positioning a glass pipette (3–5 µm diameter, filled with Krebs' extracellular solution) on lamina II in spinal cord slices. […]
We next investigated the modulatory effect of CR4056 on NMDA-mediated postsynaptic excitatory currents (EPSCs) recorded from lamina II neurons in rat spinal cord slices. […] To isolate NMDA EPSCs (recorded in voltage clamp at +40 mV), AMPA, GABAA and glycine receptors were blocked by NBQX (10 µM), bicuculline (10 µM), and strychnine (0.5 µM), respectively. […]

[5] = tested on: field potentials from dorsal horn laminae I-II (mainly mediated by AMPARs); assay: Extracellular field potentials evoked by dorsal root stimulation in spinal cord slices; type: cell-based, rat; details: 6 slices; p > 0.05
Source text: as §7, with “Slices were incubated in oxygenated incubation Krebs' solution (composition in mM: 125 NaCl, 2.5 KCl, 25 NaHCO3, 1 NaH2PO4·H2O, 25 glucose, 6 MgCl2, 1.5 CaCl2) at 32°C for 30 min and then used for recording.” left out
Neurons in spinal cord slices were visualized using an Axioskop microscope (Zeiss, Oberkochen, Germany), fitted with Nomarski optics and connected to a CCD camera (Dage-MTI, Michigan City, United States). […] Data were recorded and acquired using a MultiClamp 700A amplifier and the pClamp 10 software (Molecular Devices, Sunnyvale, United States). […] Extracellular field potentials were recorded by positioning a glass pipette (3–5 µm diameter, filled with Krebs' extracellular solution) on lamina II in spinal cord slices. […]
To determine whether the effect of CR4056 on NMDA EPSCs was due to a decrease of glutamate release from primary afferents or to a modulation of NMDARs, we recorded extracellular field potentials evoked by dorsal root stimulation (Figure 4E). […]

[6] = tested on: lamina II neuron excitability; assay: Current-clamp recording of summated EPSPs and action potentials on repetitive dorsal root stimulation; type: cell-based, rat
Source text: as §7
Neurons in spinal cord slices were visualized using an Axioskop microscope (Zeiss, Oberkochen, Germany), fitted with Nomarski optics and connected to a CCD camera (Dage-MTI, Michigan City, United States). Patch-clamp recordings were performed by using thick-walled borosilicate pipettes (3–5 MOhm resistance). Data were recorded and acquired using a MultiClamp 700A amplifier and the pClamp 10 software (Molecular Devices, Sunnyvale, United States). Sampling rate was 10 kHz, and data were filtered at 2–5 kHz. The dorsal root attached to each slice was stimulated using a suction electrode. Stimulus duration was 0.1 ms, stimulus intensity was 500 µA, able to activate both A and C primary afferent fibers ([20]). Extracellular field potentials were recorded by positioning a glass pipette (3–5 µm diameter, filled with Krebs' extracellular solution) on lamina II in spinal cord slices. Extracellular synaptic potentials were evoked by dorsal root stimulation, as described above, and amplified by using a Multiclamp 700A amplifier (Molecular Devices, Sunnyvale, United States).
For the experiments on neurons in slices the following Krebs' extracellular solution was used (composition in mM): 125 NaCl, 2.5 KCl, 25 NaHCO3, 1 NaH2PO4·H2O, 25 glucose, 1 MgCl2, 2 CaCl2. A cesium-based internal solution was used during the voltage-clamp experiments (composition in mM: 120 caesium methanesulfonate, 10 sodium methanesulfonate, 10 EGTA, 1 CaCl2, 10 Hepes, 5 lidocaine N-ethyl bromide quaternary salt-Cl, 5 MgATP, pH adjusted to 7.2 with CsOH, osmolarity 290 mOsmol L^−1), while a potassium-based solution was utilized for the experiments in current-clamp (composition in mM: 120 potassium methanesulfonate, 10 NaCl, 10 EGTA, 1 CaCl2, 10 Hepes, 5 MgATP, pH adjusted to 7.2 with KOH, osmolarity 300 mOsmol L^−1).
Finally, we tested whether CR4056 was able to depress lamina II neuron excitability in response to repetitive stimulation of the dorsal root. […]

[7] = CR4056 10 µM, 4 pulses 5–10 Hz, 500 µA

Cl.c1ccc2oc(C3=NCCN3)cc2c1 [2-BFI, 2-(2-Benzofuranyl)-2-imidazoline hydrochloride, reference compound]
IC50 (NMDA receptor [1]; cortical neurons): 8 µM and 13 µM | maximal reduction of NMDA current (efficacy) (NMDA receptor [1]; cortical neurons): 76 ± 2% and 48 ± 5% | IC50 [2]: 23 ± 12 µM | Emax [2]: -39 ± 6% | IC50 (GluN1-GluN2B receptors): 11 ± 6 µM | Emax (GluN1-GluN2B receptors): -73 ± 7% | effect on PKCε translocation (PKCε translocation): ineffective

c1ccc(-c2ncc3cc(-n4ccnc4)ccc3n2)cc1 [CR4056, 2-phenyl-6-(1H-imidazol-1yl)quinazoline]
change of amplitude of NMDA currents, compound dialyzed inside the cell via patch pipette (NMDA receptor [1]; 10 µM intracellular, p > 0.05, t-test): did not change significantly | CR4056 effect on NMDA current when co-applied with idazoxan (NMDA receptor [1]; CR4056 10 µM + idazoxan 10 µM): does not change CR4056 effect | reduction of current evoked by increasing NMDA concentration (type of antagonism) (NMDA receptor [1]; CR4056 10 µM, NMDA 10 to 100 µM): reduced to the same extent | reduction of NMDA currents in control vs after pertussis toxin (NMDA receptor [1]; PTX 200 ng/ml for 24 h): no statistically significant differences | effect on NMDA current at high glycine concentrations (NMDA receptor [1]; cortical neurons, CR4056 10 µM, glycine 1-500 µM, one-way ANOVA): significatively reduced | IC50 (NMDA receptor [1]; cortical neurons): 5.3 ± 0.1 µM | maximal reduction of NMDA current (efficacy) (NMDA receptor [1]; cortical neurons): 84.4 ± 6% | reduction of NMDA-evoked current at +40 mV (NMDA receptor [1]; holding potential +40 mV, CR4056 10 µM): −31 ± 1% | reduction of NMDA-evoked current at −40 mV (NMDA receptor [1]; holding potential −40 mV, CR4056 10 µM): −33 ± 4% | effect on NMDA current at high glycine concentrations (NMDA receptor [3]): significatively reduced | IC50 [2]: 21 ± 12 µM | Emax [2]: -47 ± 3% | IC50 (GluN1-GluN2B receptors): 11 ± 2 µM | Emax (GluN1-GluN2B receptors): -86 ± 6% | average reduction in NMDA EPSC amplitude ([4]; CR4056 10 µM, +40 mV, NBQX, bicuculline, strychnine present, 7 neurons): 26.3 ± 4.2% | EPSC amplitude in WASH, mean ([4]; after washing of CR4056, N 7): 514.986 pA | EPSC amplitude in CR, mean ([4]; during CR4056, N 7, control mean 597.629): 475.443 pA | effect on field potential area [5]: did not affect | change of area of the summated EPSPs [6, 7]: −29.7 ± 5.4% | change of mean number of action potentials generated at each train [6, 7]: −50.9 ± 12.6% | EPSP area in CR, mean ([6]; during CR4056, N 7, control mean 11858.457): 8924.714 mV*ms | N action potentials/train in CR, median ([6]; during CR4056, N 7, control median 0.310): 0.150 | effect on PKCε translocation (PKCε translocation): reduces PKCε translocation

c1ccc2c(c1)OCC(C1=NCCN1)O2 (stereo not shown) [Idazoxan, reference compound]
effect on NMDA-elicited current applied alone (NMDA receptor [1]; 10 µM): did not affect
